# Data: patent US12583858B2 (Genentech, Inc., priority 2015, dated 2026)
# Target: T1, TDO2 (Homo sapiens, UniProt P48775)
# T1 construct: decreased levels of NFK in SW48 cells (high TDO expressing cells)
# Test: TDO2 cell assay (NFK GreenScreen, SW48 cells)
# Assay type: cell-based
# Conditions: SW48 cells (high TDO expressing), 200 uM tryptophan, 24 hours; Table 3; read-out: TDO2 Cell Fluor EC50
# T1 sequence (P48775 whole entry): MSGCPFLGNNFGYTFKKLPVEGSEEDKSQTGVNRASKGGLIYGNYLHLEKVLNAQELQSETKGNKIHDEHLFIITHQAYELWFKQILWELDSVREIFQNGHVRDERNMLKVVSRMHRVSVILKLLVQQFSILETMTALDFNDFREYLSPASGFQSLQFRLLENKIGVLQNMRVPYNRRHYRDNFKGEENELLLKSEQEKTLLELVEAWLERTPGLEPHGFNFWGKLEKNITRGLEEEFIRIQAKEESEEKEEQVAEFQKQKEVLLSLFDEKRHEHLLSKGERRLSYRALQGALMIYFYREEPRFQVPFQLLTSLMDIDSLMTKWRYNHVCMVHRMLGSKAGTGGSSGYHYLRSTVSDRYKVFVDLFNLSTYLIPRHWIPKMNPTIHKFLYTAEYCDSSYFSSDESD
row,Structure (SMILES),EC50 [µM]
1,"OC1c2cnncc2CCC1C1c2ccccc2-c2cncn21 (single isomer, unassigned) [Example 112g]",0.27
2,"CCS(=O)(=O)N1CC(O)C(C2c3ccccc3-c3cncn32)C1 (single isomer, unassigned) [Example 40a]",6.4
3,"OC1c2cncnc2CCC1C1c2ccccc2-c2cncn21 (single isomer, unassigned) [Example 94g]",14
4,"OC1c2cncn2CCC1C1c2ccccc2-c2cncn21 (single isomer, unassigned) [Example 07e]",2.2
5,"CC1(C)OCC(C2c3ccccc3-c3cncn32)C1O (single isomer, unassigned) [Example 85c]",11
6,"Cc1cc2c(cn1)[C@@H](O)[C@@H]([C@H]1c3ccccc3-c3cncn31)C2 [Example 59a, (6R,7S)-6-((S)-5H-imidazo[5,1-a]isoindol-5-yl)-3-methyl-6,7-dihydro-5H-cyclopenta[c]pyridin-7-ol]",0.95
7,"Cc1ccc2c(c1)C(C1COCC1O)n1cncc1-2 (single isomer, unassigned) [Example 110d]",> 25
8,"Cn1cc2c(n1)C(O)C(C1c3ccccc3-c3cncn31)CC2 (single isomer, unassigned) [Example 139-1a]",5.3
9,"CC1(C)CCCC(C2c3ccccc3-c3cncn32)C1O (single isomer, unassigned) [Example 24h]",12
10,"CC1(O)CCOCC1C1c2ccccc2-c2cncn21 (single isomer, unassigned) [Example 61d]",21
11,"CS(=O)(=O)N1CCC2(CCC(C3c4ccccc4-c4cncn43)C2O)CC1 (single isomer, unassigned) [Example 180d]",> 25
12,"Cn1cc2c(n1)CCC(C1c3ccccc3-c3cncn31)C2O (single isomer, unassigned) [Example 130c]",> 25
13,"OC1CCCOCC1C1c2ccccc2-c2cncn21 (single isomer, unassigned) [Example 86g]",0.84
14,"OC1CCOCC1C1c2cccc(F)c2-c2cncn21 (single isomer, unassigned) [Example 170d]",13
15,"O[C@H]1c2ccnn2CC[C@@H]1[C@@H]1c2ccccc2-c2cncn21 [Example 56d, (4R,5R)-5-((R)-5H-imidazo[5,1-a]isoindol-5-yl)-4,5,6,7-tetrahydropyrazolo[1,5-a]pyridin-4-ol]",> 25
16,"OC1CC2(CC2)C1C1c2ccccc2-c2cncn21 (single isomer, unassigned) [Example 72g]",11
17,"O[C@@H]1c2nccnc2CC[C@H]1[C@H]1c2ccccc2-c2cncn21 (single isomer, unassigned) [Example 123b]",0.23
18,"CS(=O)(=O)c1ccc2c(c1)OCC(C1c3ccccc3-c3cncn31)C2O (single isomer, unassigned) [Example 91c]",> 25
19,"OC1c2nccn2CCC1C1c2ccccc2-c2cncn21 (single isomer, unassigned) [Example 88a]",> 25
20,"OC1c2cnncc2CCC1C1c2ccccc2-c2cncn21 (single isomer, unassigned) [Example 112c]",> 25
21,"NS(=O)(=O)N1CCC(O)C(C2c3ccccc3-c3cncn32)CC1 (single isomer, unassigned) [Example 101a, 4-hydroxy-5-(5H-imidazo[5,1-a]isoindol-5-yl)azepane-1-sulfonamide]",> 25
22,"O[C@@H](C1CCCCC1)[C@@H]1c2ccccc2-c2cncn21 (single isomer, unassigned) [Example 148c]",0.88
23,"OC1c2cnccc2CCC1C1c2ccccc2-c2cncn21 (single isomer, unassigned) [Example 04b]",> 25
24,"OC1(C2c3ccccc3-c3cncn32)CCOC1 (single isomer, unassigned) [Example 129d]",2.6
25,"O[C@@H]1c2c(Cl)cnn2CC[C@@H]1[C@@H]1c2ccccc2-c2cncn21 [Example 160a, (4S,5R)-3-chloro-5-((R)-5H-imidazo[5,1-a]isoindol-5-yl)-4,5,6,7-tetrahydropyrazolo[1,5-a]pyridin-4-ol]",> 25
26,"O[C@@H]1c2ccccc2CC[C@H]1[C@@H]1c2ccccc2-c2cncn21 (single isomer, unassigned) [Example 102h]",8.4
27,"Cc1cc2n(n1)CCC(C1c3ccccc3-c3cncn31)C2O (single isomer, unassigned) [Example 166b]",0.27
28,"N#Cc1cnc2c(c1)CCC(C1c3ccccc3-c3cncn31)C2O (single isomer, unassigned) [Example 107f]",0.42
29,"Nc1cc2n(n1)CC[C@H]([C@H]1c3ccccc3-c3cncn31)[C@H]2O [Example 161a, (4R,5R)-2-amino-5-((S)-5H-imidazo[5,1-a]isoindol-5-yl)-4,5,6,7-tetrahydropyrazolo[1,5-a]pyridin-4-ol]",18
30,"OC1CCCCCC1C1c2ccccc2-c2cncn21 (single isomer, unassigned) [Example 115a, 2-(5H-imidazo[5,1-a]isoindol-5-yl)cycloheptan-1-ol]",14

# Further lines, results first:
row,EC50 [µM],Structure (SMILES)
1,3.3,"OC1CCC1C1c2ccccc2-c2cncn21 (single isomer, unassigned) [Example 01g]"
2,> 25,"CC(C)C(O)C1c2ccc(F)cc2-c2cncn21 (single isomer, unassigned) [Example 135a]"
3,0.12,"O[C@H]1CCC[C@H]1[C@H]1c2ccccc2-c2cncn21 [Example 02b, (1S,2S)-2-((S)-5H-imidazo[5,1-a]isoindol-5-yl)cyclopentan-1-ol]"
4,1,"OC1(C2c3ccccc3-c3cncn32)CCCOC1 (single isomer, unassigned) [Example 144a]"
5,24,"CC1(C)OCC(C2c3ccccc3-c3cncn32)C1O (single isomer, unassigned) [Example 85a]"
6,> 25,"OC1COCCC1C1c2cccc(F)c2-c2cncn21 (single isomer, unassigned) [Example 99b]"
7,3.2,"CC(C)(C)OC(=O)N1CC2(CC(C3c4ccccc4-c4cncn43)C2O)C1 (single isomer, unassigned) [Example 41d, tert-butyl 7-hydroxy-6-(5H-imidazo[1,5-b]isoindol-5-yl)-2-azaspiro[3.3]heptane-2-carboxylate]"
8,2.5,"CS(=O)(=O)N1CCC(O)(C2c3ccccc3-c3cncn32)C1 (single isomer, unassigned) [Example 116b]"
9,> 25,"CC1(C)OC(C)(C)C(C2c3ccccc3-c3cncn32)C1O (single isomer, unassigned) [Example 84e]"
10,0.52,"O[C@@H]1c2c(F)cnn2CC[C@@H]1[C@@H]1c2ccccc2-c2cncn21 [Example 151a, (4S,5R)-3-fluoro-5-((R)-5H-imidazo[5,1-a]isoindol-5-yl)-4,5,6,7-tetrahydropyrazolo[1,5-a]pyridin-4-ol]"
11,16,"Nc1ccc2c(n1)CCC(C1c3ccccc3-c3cncn31)C2O (single isomer, unassigned) [Example 121e]"
12,12,"N#Cc1ccc2c(c1)[C@@H](O)[C@@H]([C@H]1c3ccccc3-c3cncn31)CC2 (stereo in doubt) [Example 113d, (7R,8S)-8-hydroxy-7-((S)-5H-imidazo[5,1-a]isoindol-5-yl)-5,6,7,8-tetrahydronaphthalene-2-carbonitrile]"
13,0.66,"CC1(C)OCC(C2c3ccccc3-c3cncn32)C1O (single isomer, unassigned) [Example 85d]"
14,2.3,"O[C@H]1c2cnccc2CC[C@@H]1[C@@H]1c2ccccc2-c2cncn21 (single isomer, unassigned) [Example 04f]"
15,0.89,"CC(C)(C)OC(=O)N1CCCC(O)(C2c3ccccc3-c3cncn32)C1 (single isomer, unassigned) [Example 127b]"
16,0.2,"OC1c2cccn2CCC1C1c2ccccc2-c2cncn21 (single isomer, unassigned) [Example 136g]"
17,1,"O[C@H]1CCOC[C@@H]1[C@H]1c2ccccc2-c2cncn21 [Example 05d, (3S,4S)-3-((S)-5H-imidazo[5,1-a]isoindol-5-yl)-tetrahydro-2H-pyran-4-ol]"
18,0.45,"CC1(O)CCC1C1c2ccccc2-c2cncn21 (single isomer, unassigned) [Example 35b]"
19,11,"O[C@@H]1[C@@H]([C@H]2c3ccccc3-c3cncn32)CC12CCOCC2 [Example 57a, (1R,2R)-2-((S)-5H-imidazo[5,1-a]isoindol-5-yl)-7-oxaspiro[3.5]nonan-1-ol]"
20,19,"C[C@@](O)(C1CCOCC1)[C@@H]1c2ccccc2-c2cncn21 (racemic) [Example 131a, Mixture of(S)-1-((R)-5H-imidazo[5,1-a]isoindol-5-yl)-1-(tetrahydro-2H-pyran-4-yl)ethan-1-ol and (R)-1-((S)-5H-imidazo[5,1-a]isoindol-5-yl)-1-(tetrahydro-2H-pyran-4-yl)ethan-1-ol]"
21,5.8,"Cc1ccc2c(c1)-c1cncn1C2C1COCC1O (single isomer, unassigned) [Example 171c]"
22,20,"NC(=O)c1ccc2c(n1)CCC(C1c3ccccc3-c3cncn31)C2O (single isomer, unassigned) [Example 104h]"
23,12,"NS(=O)(=O)c1ccc2c(c1)C(O)C(C1c3ccccc3-c3cncn31)CC2 (single isomer, unassigned) [Example 105a]"
24,0.71,"OC1COCC1C1c2ccccc2-c2cncn21 (single isomer, unassigned) [Example 26c]"
25,1.8,"O[C@@H]1c2cccnc2CC[C@H]1[C@@H]1c2ccccc2-c2cncn21 [Example 31g, (5S,6S)-6-((R)-5H-imidazo[5,1-a]isoindol-5-yl)-5,6,7,8-tetrahydroquinolin-5-ol]"
26,11,"OC1c2ccccc2CCC1C1c2ccccc2-c2cncn21 (single isomer, unassigned) [Example 102d]"
27,2.5,"CS(=O)(=O)N1CC[C@@H]([C@H]2c3ccccc3-c3cncn32)[C@H](O)C1 (single isomer, unassigned) [Example 64d]"
